From PubChem BioAssay (NCI)
Where “and” joins values, the source holds several entries; their conditions need not be identical. Equal values may be shown once.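 The compound was tested at five concentrations on cells cultured in 96-well plates, with a 48-hour exposure period. Abbreviation: GI50, concentration required for 50% inhibition of growth. At the TGI there is no net growth.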

How the values were obtained:
Assay in all cases: NCI anticancer screen, dose series, 48 h
HL-60(TB) leukemia = tested on: HL-60(TB) leukemia
SR leukemia = tested on: SR leukemia
MDA-MB-231 breast = tested on: MDA-MB-231 breast
MCF7 breast = tested on: MCF7 breast
HOP-92 NSCLC = tested on: HOP-92 NSCLC
LOX IMVI melanoma = tested on: LOX IMVI melanoma
ACHN renal = tested on: ACHN renal
TK-10 renal = tested on: TK-10 renal
NCI-H460 lung = tested on: NCI-H460 lung
SN12C renal = tested on: SN12C renal

Row | Structure (SMILES) | TGI (HL-60(TB) leukemia) | GI50 (SR leukemia) | TGI (SR leukemia) | GI50 (MDA-MB-231 breast) | TGI (MDA-MB-231 breast) | GI50 (MCF7 breast) | TGI (MCF7 breast) | GI50 (HOP-92 NSCLC) | TGI (HOP-92 NSCLC) | GI50 (LOX IMVI melanoma) | TGI (LOX IMVI melanoma) | GI50 (ACHN renal) | TGI (ACHN renal) | GI50 (TK-10 renal) | TGI (TK-10 renal) | GI50 (NCI-H460 lung) | TGI (NCI-H460 lung) | GI50 (SN12C renal) | TGI (SN12C renal) | GI50 (HL-60(TB) leukemia)
1 | O=C(Nc1cccc(O)c1)c1ccc(NC2=C(Cl)C(=O)N(Cc3ccc(Cl)cc3Cl)C2=O)cc1 | 3.75 µM | 168 nM | 0.411 µM | 1850 nM | 4.05 µM | 1830 nM | 4290 nM | 1860 nM | 4.16 µM | 1620 nM | 3.16 µM | 1750 nM | 3.21 µM | 2070 nM | 4.82 µM | 2860 nM | 8.91 µM | 1990 nM | 4.09 µM | 
2 | COc1cccc(CC(C)=C(c2ccc(OCCN3CCCCC3)cc2)c2ccc(OCCN3CCCCC3)cc2)c1 | 4.12 µM | 392 nM | 1.2 µM | 1920 nM | 4.02 µM | 728 nM | 2810 nM | 612 nM | 2.59 µM | 1640 nM | 3.52 µM | 2160 nM | 4.07 µM | 2360 nM | 4.54 µM | 1960 nM | 3.93 µM | 2020 nM | 4.04 µM | 1780 nM
3 | COc1ccc(-c2nc(-c3ccc(C)cc3)cn3ccnc23)cc1 | > 50 µM | 300 nM | > 50 µM | 4240 nM | 38.8 µM | 3050 nM | > 50000 nM | 16200 nM | > 50 µM | 3430 nM | 13.8 µM | 7580 nM | > 50 µM | 20600 nM | > 50 µM | 2530 nM | 20.1 µM | 6120 nM | > 50 µM | 2580 nM
4 | Cc1cc2c(cc1Cl)S/C(=C/C(=O)O)C(Nc1ccc3ncsc3c1)=NS2(=O)=O | > 100 µM | 14600 nM | 77.9 µM | 20900 nM | > 63.7 µM | 8750 nM | > 92500 nM | 7760 nM | 21.5 µM | 22400 nM | 62.9 µM | > 52600 nM | > 68 µM | 17900 nM | 51.1 µM | 16200 nM | > 100 µM | 16500 nM | > 64.8 µM | 9160 nM
5 | C=CCN(CCNS(=O)(=O)c1ccc(C)cc1)S(=O)(=O)c1ccc(C)cc1 | 47.6 µM |  | > 100 µM |  | > 100 µM |  | > 84200 nM |  | > 100 µM |  | > 100 µM |  | > 100 µM |  | > 100 µM |  | > 71.7 µM |  | > 100 µM | 
6 | CCCCCCCCCCCCCCCCCCn1cc[n+](C)c1 | 0.336 µM and 1.67 µM | 1240 nM | > 100 µM | 1080 nM | 2.52 µM | 513 nM and 1000 nM | 1790 nM and 2350 nM | 350 nM | 2.62 µM | 189 nM and 406 nM | 0.479 µM and 1.75 µM | 540 nM and 690 nM | 2.04 µM and 2.03 µM | 470 nM and 260 nM | 1.97 µM and 1.44 µM | 521 nM and 659 nM | 1.8 µM and 2.11 µM | 1070 nM and 826 nM | 2.47 µM and 2.3 µM | 143 nM and 293 nM
